{
  "source": "patent US9873661B2",
  "about": "“Small molecule malarial Aldolase-TRAP enhancers and glideosome inhibitors” (NEW YORK UNIVERSITY, priority 2011, dated 2018)",
  "origin": "cited, not measured here",
  "target": "T1, plant plasma membrane H+-ATPase (PMA) and 14-3-3 (Nicotiana tabacum, UniProt P93343)",
  "T1 sequence (P93343 1-260)": "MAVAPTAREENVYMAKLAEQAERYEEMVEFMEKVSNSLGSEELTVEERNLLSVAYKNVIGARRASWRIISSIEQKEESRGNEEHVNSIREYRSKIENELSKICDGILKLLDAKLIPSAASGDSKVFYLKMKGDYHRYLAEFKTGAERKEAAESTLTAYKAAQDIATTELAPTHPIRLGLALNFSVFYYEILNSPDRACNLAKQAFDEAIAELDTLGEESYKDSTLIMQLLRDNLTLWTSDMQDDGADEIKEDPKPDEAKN",
  "data": [
    {"substance": "fusioccin", "values": [
      {"measurement": "increase of binding affinity between PMA and 14-3-3", "result": "approximately 90 fold"}
    ]}
  ]
}
